Values of other authors in patent publication US20020132320A1, “Glycoconjugate synthesis using a pathway-engineered organism” (priority 2001, published 2002).

Columns and labels:
[1] = target: Hyaluronan synthase (spHAS) (Streptococcus pyogenes, UniProt P0C0H0)
CMP-NeuNAc synthetase = target: T1, CMP-NeuNAc synthetase (Escherichia coli O18:K1:H7, UniProt P13266); details: enzyme purified from E. coli K1; read-out: apparent Km
T1 construct: host or cells: E. coli K1

E. coli NanA = E. coli NanA (Escherichia coli, UniProt P0A6L4); details: cleavage reaction
[2] = relative to morphine
[3] = tested on: UDP-GalNAc pyrophosphorylase; details: substrate of purified UDP-GalNAc pyrophosphorylase

In the case of `CC(=O)N[C@H]1[C@@H](OP(=O)(O)OP(=O)(O)OC[C@H]2O[C@@H](n3ccc(=O)[nH]c3=O)[C@H](O)[C@@H]2O)O[C@H](CO)[C@@H](O)[C@@H]1O` [UDP-GlcNAc, uridine 5′-diphospho-N-acetylglucosamine], the Km [1] is listed as 149 ± 3 µM.

For `Nc1ccn([C@@H]2O[C@H](COP(=O)(O)OP(=O)(O)OP(=O)(O)O)[C@@H](O)[C@H]2O)c(=O)n1` [CTP, Cytosine 5′-triphosphate], the Km (CMP-NeuNAc synthetase) is listed as 310 µM.

For `CC(=O)N[C@H]1[C@H]([C@H](O)[C@H](O)CO)OC(O)(C(=O)O)C[C@@H]1O` (stereo partly shown) [NeuNAc, N-acetylneuraminic acid], the Km (E. coli NanA) is given as 4300 µM.

In the case of `CN1CC[C@]23c4c5ccc(O)c4O[C@H]2[C@@H](O[C@@H]2O[C@H](C(=O)O)[C@@H](O)[C@H](O)[C@H]2O)C=C[C@H]3[C@H]1C5` [morphine-6-O-glucuronide], the “times more active than morphine” value [2] is listed as 50 times.

In the case of `CC(=O)N[C@H]1C(OP(=O)(O)O)O[C@H](CO)[C@H](O)[C@@H]1O` (stereo partly shown) [GalNAc-1-P, N-acetylgalactosamine-1-phosphate], the Km [3] is given as 290 µM.

In the case of `O=C(O)[C@H]1O[C@H](OP(=O)(O)OP(=O)(O)OC[C@H]2O[C@@H](n3ccc(=O)[nH]c3=O)[C@H](O)[C@@H]2O)[C@H](O)[C@@H](O)[C@@H]1O` [UDP-GlcA, uridine 5′-diphosphoglucuronic acid], the Km [1] is given as 40 ± 4 µM.

In the case of `CC(=O)NC1C(OP(=O)(O)O)OC(CO)C(O)C1O` (stereo not shown) [GlcNAc-1-P], the Km [3] is given as 1100 µM.
